By inhibition is commonly meant the share of the control response that was lost under treatment.

Series [1] has as its target T1, Fructose-1,6-bisphosphatase 1 (Homo sapiens) (UniProt P09467).
T1 sequence (whole entry): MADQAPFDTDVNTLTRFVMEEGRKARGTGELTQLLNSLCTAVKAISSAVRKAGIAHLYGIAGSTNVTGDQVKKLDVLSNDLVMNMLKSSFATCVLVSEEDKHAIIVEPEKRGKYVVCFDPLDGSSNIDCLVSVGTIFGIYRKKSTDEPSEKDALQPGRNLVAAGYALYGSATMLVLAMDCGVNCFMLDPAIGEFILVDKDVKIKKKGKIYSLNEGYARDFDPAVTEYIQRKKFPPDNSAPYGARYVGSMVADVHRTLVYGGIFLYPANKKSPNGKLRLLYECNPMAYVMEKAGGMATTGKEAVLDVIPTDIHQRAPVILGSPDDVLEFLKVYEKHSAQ
The series is described as follows: Inhibition of wild-type full-length human liver FBPase expressed in Escherichia coli BL21 (DE3) using FBP as substrate at 10 uM by malachite green dye-based assay. The class given is single protein.

For series [2], the system named is c1csc(SSc2nccs2)n1. The series is described as follows: Covalent inhibition of FBPase C38S mutant (unknown origin) assessed as Vmax measured at 45 mins by UV-visible spectrometry analysis. Particulars: Homo sapiens.
In series [3] the test system is c1csc(SSc2nccs2)n1. The series is described as follows: Covalent inhibition of FBPase C92S mutant (unknown origin) assessed as Vmax measured upto 45 mins by UV-visible spectrometry analysis. Particulars: Homo sapiens.
Series [4] has as its system c1csc(SSc2nccs2)n1. The series is described as follows: Covalent inhibition of FBPase C116S mutant (unknown origin) assessed as Vmax measured upto 45 mins by UV-visible spectrometry analysis. The settings on record: Homo sapiens.
The subject of series [5] is c1csc(SSc2nccs2)n1. The series is described as follows: Covalent inhibition of FBPase C128S mutant (unknown origin) assessed as Vmax measured upto 45 mins by UV-visible spectrometry analysis. Particulars: Homo sapiens; time min <=45.
The subject of series [6] is c1csc(SSc2nccs2)n1. The series is described as follows: Covalent inhibition of FBPase C179S mutant (unknown origin) assessed as Vmax measured upto 45 mins by UV-visible spectrometry analysis. The settings on record: Homo sapiens; time min <=45.
For series [7], the system named is c1csc(SSc2nccs2)n1. The series is described as follows: Covalent inhibition of FBPase C281S mutant (unknown origin) assessed as Vmax measured upto 45 mins by UV-visible spectrometry analysis. The settings on record: Homo sapiens; time min <=45.
In series [8] the test system is c1csc(SSc2nccs2)n1. Description: Covalent inhibition of FBPase S124A mutant (unknown origin) assessed as Vmax measured upto 45 mins by UV-visible spectrometry analysis. Particulars: Homo sapiens; time min <=45.
For series [9], the system named is c1csc(SSc2nccs2)n1. Description: Covalent inhibition of FBPase N125A mutant (unknown origin) assessed as Vmax measured upto 45 mins by UV-visible spectrometry analysis. The settings on record: Homo sapiens; time min <=45.
Series [10] relates to c1csc(SSc2nccs2)n1. Description: Covalent inhibition of FBPase D127A mutant (unknown origin) assessed as Vmax measured upto 45 mins by UV-visible spectrometry analysis. The settings on record: Homo sapiens; time min <=45.
Series [11] has as its system c1csc(SSc2nccs2)n1. Description: Covalent inhibition of FBPase R243A mutant (unknown origin) assessed as Vmax measured upto 45 mins by UV-visible spectrometry analysis. The settings on record: Homo sapiens; time min <=45.
The test system of series [12] is c1csc(SSc2nccs2)n1. The series is described as follows: Covalent inhibition of FBPase R254A mutant (unknown origin) assessed as Vmax measured upto 45 mins by UV-visible spectrometry analysis. Particulars: Homo sapiens; time min <=45.
The subject of series [13] is c1csc(SSc2nccs2)n1. The series is described as follows: Covalent inhibition of FBPase Y258A mutant (unknown origin) assessed as Vmax measured upto 45 mins by UV-visible spectrometry analysis. Particulars: Homo sapiens; time min <=45.
In series [14] the test system is c1csc(SSc2nccs2)n1. The series is described as follows: Covalent inhibition of FBPase C183S (unknown origin) assessed as Vmax measured upto 45 mins. The settings on record: Homo sapiens; time min <=45.
In series [15] the test system is c1csc(SSc2nccs2)n1. Description: Covalent inhibition of FBPase C183S (unknown origin) upto 45 mins. Particulars: Homo sapiens; time min <=45.
The subject of series [16] is Mus musculus. The series is described as follows: Suppression of blood glucose concentration in 12 hrs fasted ICR mouse model at 12.5 mg/kg, ip measured upto 120 mins after oral administration of glucose at 2 g/kg for 60 min by oral glucose tolerance test. Format: functional, organism-based.
The subject of series [17] is Mus musculus. The series is described as follows: Suppression of blood glucose concentration in 12 hrs fasted ICR mouse model at 25 mg/kg, ip measured upto 120 mins after oral administration of glucose at 2 g/kg for 60 min by oral glucose tolerance test. The class given is functional, organism-based.
In series [18] the test system is Mus musculus. Description: Suppression of blood glucose concentration in 12 hrs fasted db/db mouse model at 12.5 mg/kg, ip measured upto 120 mins after oral administration of glucose at 2 g/kg for 60 min by oral glucose tolerance test. The class given is functional, organism-based.
The subject of series [19] is Mus musculus. Description: Hypoglycemic activity in 2 hrs fasted db/db mouse model assessed as reduction in blood glucose AUC at 12.5 mg/kg, ip measured upto 120 mins after oral administration of glucose at 2 g/kg for 60 min by oral glucose tolerance test. Format: functional, organism-based.
Series [20] relates to Mus musculus. The series is described as follows: Hypoglycemic activity in 2 hrs fasted db/db mouse model assessed as reduction in blood glucose AUC at 25 mg/kg, ip measured upto 120 mins after oral administration of glucose at 2 g/kg for 60 min by oral glucose tolerance test. Format: functional, organism-based.
For series [21], the species on record is Homo sapiens. The series is described as follows: Selectivity index, ratio of IC50 for FBPase S124A mutant IC50 for FBPase WT (unknown origin).
The species entered for series [22] is Homo sapiens. Description: Selectivity index, ratio of IC50 for FBPase N125A mutant IC50 for FBPase WT (unknown origin).
The species entered for series [23] is Homo sapiens. Description: Selectivity index, ratio of IC50 for FBPase D127A mutant IC50 for FBPase WT (unknown origin).
Series [24] is filed under the species Homo sapiens. Description: Selectivity index, ratio of IC50 for FBPase R243A mutant IC50 for FBPase WT (unknown origin).
The species named for series [25] is Homo sapiens. The series is described as follows: Selectivity index, ratio of IC50 for FBPase R254A mutant IC50 for FBPase WT (unknown origin).
Series [26] is filed under the species Homo sapiens. Description: Selectivity index, ratio of IC50 for FBPase Y258A mutant IC50 for FBPase WT (unknown origin).
Series [27] is filed under the species Homo sapiens. The series is described as follows: Selectivity index, ratio of IC50 for FBPase C38S mutant IC50 for FBPase WT (unknown origin).
For series [28], the species on record is Homo sapiens. Description: Selectivity index, ratio of IC50 for FBPase C92S mutant IC50 for FBPase WT (unknown origin).
The species entered for series [29] is Homo sapiens. Description: Selectivity index, ratio of IC50 for FBPase C116S mutant IC50 for FBPase WT (unknown origin).
The species entered for series [30] is Homo sapiens. The series is described as follows: Selectivity index, ratio of IC50 for FBPase C128S mutant IC50 for FBPase WT (unknown origin).
Series [31] is filed under the species Homo sapiens. Description: Selectivity index, ratio of IC50 for FBPase C179S mutant IC50 for FBPase WT (unknown origin).
The species entered for series [32] is Homo sapiens. The series is described as follows: Selectivity index, ratio of IC50 for FBPase C183S mutant IC50 for FBPase WT (unknown origin).
For series [33], the species on record is Homo sapiens. Description: Selectivity index, ratio of IC50 for FBPase WT (unknown origin) to IC50 for FBPase […] mutant IC50 for FBPase WT (unknown origin).
Another series relates to Hepatocyte. The series is described as follows: Inhibition of gluconeogenesis in C57BLKS mouse primary hepatocytes assessed as inhibition of glucose output measured after 6 hrs. Format: functional, cell-based. The settings on record: dose 0.5-100 µmol/L.
For series [34], the target named is T1, Fructose-1,6-bisphosphatase 1 (Homo sapiens). Description: Covalent binding affinity to FBPase WT (unknown origin) assessed as maximum peak absorption measured upto 45 mins by UV-visible spectroscopy (reference value: 283 nm). The settings on record: time min <=45.

The source made the active and inactive calls. No cut-off for these calls is given here. Some results are limits rather than exact numbers.

In turn, `CCN(CC)C(=O)SSC(=O)N(CC)CC` showed an inhibition in [1] of 2.59%.

In turn, `C1CCC(SSC2CCCCC2)CC1` registered an inhibition in series [1] of 12.4%.

The compound `S=C(SSC(=S)N1CCC1)N1CCC1` came in with an inhibition in [1] of 28.5%.

`CN1CCN(C(=S)SSC(=S)N2CCN(C)CC2)CC1`: in series [1], the inhibition turned out to be 26.2%.

On to `Clc1ccc(SSc2ccc(Cl)cc2)cc1`, for which the inhibition in series [1] is 18%.

In series [1], `CCN(CC)C(=O)CSC(=S)N(CC)CC` gave an inhibition of 3.22%.

As to “Fructose-1,6-bisphosphatase 1 (Homo sapiens) (from UniProt P09467) UNDEFINED MUTATION”, the Vmax amounted to 2.7 U/mg with c1csc(SSc2nccs2)n1 [2]; 1.6 U/mg in the series with c1csc(SSc2nccs2)n1 [3]; 1.6 U/mg in the series with c1csc(SSc2nccs2)n1 [4]; 2.7 U/mg with c1csc(SSc2nccs2)n1 [5]; 2.3 U/mg with c1csc(SSc2nccs2)n1 [6]; 3.6 U/mg with c1csc(SSc2nccs2)n1 [7]. The Vmax with c1csc(SSc2nccs2)n1 [8] stood at 5 U/mg; with c1csc(SSc2nccs2)n1 [9] it was 1.5 U/mg; with c1csc(SSc2nccs2)n1 [10], 1.9 U/mg; in the series on c1csc(SSc2nccs2)n1 [11], 2.5 U/mg; in the series on c1csc(SSc2nccs2)n1 [12], 3.5 U/mg; with c1csc(SSc2nccs2)n1 [13], 5 U/mg. In addition, the Vmax with c1csc(SSc2nccs2)n1 [14] was 3.8 U/mg; in the series on c1csc(SSc2nccs2)n1 [15], 0.21 U/mg.

As to `Cc1cccn1C(=S)SSC(=S)n1cccc1C`, the inhibition in series [1] was 29.4%.

For `S=C(SSC(=S)N1CC2CCCCC2C1)N1CC2CCCCC2C1` (centres undefined), the inhibition in series [1] was 37.2%.

The compound `CCN(CC)C(=S)SC(=S)N(CC)CC` displayed an inhibition in series [1] of 18%.

With `COc1ccc2nc(SSc3nc4ccc(OC)cc4s3)sc2c1`, the inhibition in series [1] turned out to be 44.7%.

Turning to `S=C(SSC(=S)N1CCc2ccccc21)N1CCc2ccccc21`, the inhibition in series [1] stood at 39.9%.

For the compound `S=C(SSC(=S)n1c2ccccc2c2ccccc21)n1c2ccccc2c2ccccc21`, the inhibition in series [1] worked out at 39.7%.

Take `CN(C(=S)SSC(=S)N(C)c1ccccc1)c1ccccc1`: the inhibition in [1] is 35.7%.

Consider `Cn1ccnc1SSc1nccn1C`, for which, in series [1], the inhibition is 9.65%.

In the case of `CCN(CC)C(=S)SCSC(=S)N(CC)CC`, in series [1], the inhibition came out at 12.4%.

As for `c1csc(SSc2nccs2)n1`, the inhibition result with Mus musculus [16], in the series with Mus musculus [17], in the series on Mus musculus [18], in the series with Mus musculus [19] and in the series on Mus musculus [20] was “Active” throughout. The Ratio IC50 was 1.7 in the series filed under Homo sapiens [21]; greater than 926 in the series listed under Homo sapiens [22]; 0.7 in the series listed under Homo sapiens [23]; greater than 1 in the series filed under Homo sapiens [24]; 2.3 in the series listed under Homo sapiens [25]; 11.5 in the series filed under Homo sapiens [26]. The Ratio IC50 in the series filed under Homo sapiens [27] is 1.1; in the series filed under Homo sapiens [28], 0.5; in the series filed under Homo sapiens [29], 0.7; in the series listed under Homo sapiens [30] it was greater than 1850; in the series listed under Homo sapiens [31], 0.6; in the series listed under Homo sapiens [32], 0.8. Further, the Ratio IC50 in the series filed under Homo sapiens [33] was 0.7. Moreover, the inhibition entry in the series on Hepatocyte was “Dose-dependent effect”. In series [34], the lambda max is 306 nm.

For `S=C(SSC(=S)n1ncc2ccccc21)n1ncc2ccccc21`, the inhibition in series [1] worked out at 47.6%.

The compound `S=C(SSC(=S)N1CCOCC1)N1CCOCC1` had an inhibition in series [1] of 26.1%.

Consider `CC(C)N(C(=S)SSC(=S)N(C(C)C)C(C)C)C(C)C`, for which the inhibition in series [1] was 47.8%.

Compound `C[C@@H]1CN(C(=S)SSC(=S)N2C[C@@H](C)O[C@@H](C)C2)C[C@H](C)O1` showed an inhibition in series [1] of 37.7%.

As for `CN(C(=S)SSC(=S)N(C)c1ccc(-c2ccccc2)cc1)c1ccc(-c2ccccc2)cc1`, the inhibition in [1] stood at 32.4%.

With `c1ccc(SSc2ccccc2)cc1`, the inhibition in series [1] was 10.4%.

For the compound `c1csc(SSC2CCCC2)n1`, the inhibition in [1] was found to be 34.3%.

Turning to `S=C(SSC(=S)N1CCCc2ccccc21)N1CCCc2ccccc21`, the inhibition in series [1] worked out at 9.87%.

For the compound `S=C(SSC(=S)N1CCc2ccccc2C1)N1CCc2ccccc2C1`, the inhibition in [1] came out at 38.4%.

With `CCCN(CCC)C(=S)SSC(=S)N(CCC)CCC`, the inhibition in series [1] turned out to be 13.6%.

In series [1], `CN(Cc1ccccc1)C(=S)SSC(=S)N(C)Cc1ccccc1` displayed an inhibition of 3.09%.

In [1], `O=C(O)C1CCN(C(=S)SSC(=S)N2CCC(C(=O)O)CC2)CC1` registered an inhibition of 47.6%.

Consider `c1csc(SSc2cccs2)c1`, for which, in [1], the inhibition was 50.6%.

Take `O=[N+]([O-])c1ccc2nc(SSc3nc4ccc([N+](=O)[O-])cc4s3)sc2c1`: the inhibition in [1] was determined as 18.4%.

Take `CCN(CC)C(=S)CSC(=S)N(CC)CC`: the inhibition in series [1] is 21.4%.
